Laboratory results published in patent US9409884B2 (Rigel Pharmaceuticals, Inc., priority 2012, dated 2016).

biological target: AMPK; test: AMPK activation, enzyme-linked immunosorbent assay; type: biochemical; details: Table 12, compounds of Table 5
In short: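 Read-out: ELISA, used to detect compound-driven activation of AMPK.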

Row | EC50 | SMILES
1 | 1 to 10 µM | COc1cc(C(=O)NC2CCN(Cc3ccccc3)CC2)ccc1OC1CCN(c2ccco2)CC1 [Compound 5-12, N-(1-benzylpiperidin-4-yl)-3-methoxy-4-(1-(furan-2-yl)piperidin-4-yloxy)benzamide]
2 | 20 to 50 µM | O=C(NC1CCN(Cc2ccccc2)CC1)c1cccc(OC2CCN(Cc3ccccc3)CC2)c1 [Compound 5-13, N-(1-benzylpiperidin-4-yl)-3-(1-benzylpiperidin-4-yloxy)benzamide]
3 | < 1 µM | O=C(NC1CCN(Cc2ccccc2)CC1)c1ccc(OC2CCN(Cc3ccccc3)CC2)c(Cl)c1 [Compound 5-14, N-(1-benzylpiperidin-4-yl)-4-(1-benzylpiperidin-4-yloxy)-3-chlorobenzamide]
4 | < 1 µM | O=C(NC1CCN(Cc2ccccc2)CC1)c1ccc(OC2CCN(Cc3ccc4c(c3)OCCO4)CC2)c(Cl)c1 [Compound 5-15]
5 | < 1 µM | CC(C)(C)c1ccc(CN2CCC(Oc3ccc(C(=O)NC4CCN(Cc5ccccc5)CC4)cc3Cl)CC2)cc1 [Compound 5-16, N-(1-benzylpiperidin-4-yl)-4-(1-(4-tert-butylbenzyl)piperidin-4-yloxy)-3-chlorobenzamide]
6 | < 1 µM | O=C(NC1CCN(Cc2ccccc2)CC1)c1ccc(OC2CCN(c3ccc(C(F)(F)F)cc3)CC2)c(Cl)c1 [Compound 5-17]
7 | < 1 µM | O=C(NC1CCN(Cc2ccccc2)CC1)c1ccc(OC2CCN(C(=O)c3ccc(C(F)(F)F)cc3)CC2)c(Cl)c1 [Compound 5-18, N-(1-benzylpiperidin-4-yl)-3-chloro-4-(1-(4-(trifluoromethyl)benzoyl)piperidin-4-yloxy)benzamide]
8 | < 1 µM | O=C(NC1CCN(Cc2ccccc2)CC1)c1ccc(OC2CCN(Cc3ccc(F)cc3)CC2)c(Cl)c1 [Compound 5-19, N-(1-benzylpiperidin-4-yl)-3-chloro-4-(1-(4-fluorobenzyl)piperidin-4-yloxy)benzamide]
9 | < 1 µM | CC(C)(C)c1ccc(CN2CCC(Oc3ccc(C(=O)NC4CCN(Cc5ccccc5)CC4)cc3F)CC2)cc1 [Compound 5-20, N-(1-benzylpiperidin-4-yl)-3-fluoro-4-(1-(4-tert-butylbenzyl)piperidin-4-yloxy)benzamide]
10 | 1 to 10 µM | CC(c1ccccc1)N1CCC(Oc2ccc(C(=O)NC3CCN(Cc4ccccc4)CC3)cc2F)CC1 (stereo not drawn) [Compound 5-21, N-(1-benzylpiperidin-4-yl)-3-fluoro-4-(1-(1-phenylethyl)piperidin-4-yloxy)benzamide]
11 | 1 to 10 µM | O=C(NC1CCN(Cc2ccccc2)CC1)c1ccc(OC2CCN(C(=O)c3ccc(F)cc3)CC2)c(Cl)c1 [Compound 5-22, N-(1-benzylpiperidin-4-yl)-3-chloro-4-(1-(4-fluorobenzoyl)piperidin-4-yloxy)benzamide]
12 | < 1 µM | O=C(NC1CCN(Cc2ccccc2)CC1)c1ccc(OC2CCN(c3ccc(C(F)(F)F)cc3)CC2)c(F)c1 [Compound 5-23, N-(1-benzylpiperidin-4-yl)-3-fluoro-4-(1-(4-(trifluoromethyl)phenyl)piperidin-4-yloxy)benzamide]
13 | 10 to 20 µM | O=C(NC1CCN(Cc2ccccc2)CC1)c1ccc(OC2CCN(Cc3ccccc3C(F)(F)F)CC2)c(Cl)c1 [Compound 5-24, N-(1-benzylpiperidin-4-yl)-3-chloro-4-(1-(2-(trifluoromethyl)benzyl)piperidin-4-yloxy)benzamide]
14 | > 100 µM | O=C(NC1CCN(c2ccccc2)CC1)c1ccc(OC2CCN(c3ccc(C(F)(F)F)cc3)CC2)c(F)c1 [Compound 5-25, 3-fluoro-N-(1-phenylpiperidin-4-yl)-4-(1-(4-(trifluoromethyl)phenyl)piperidin-4-yloxy)benzamide]
15 | < 1 µM | CC(C)(C)OC(=O)N1CCC(NC(=O)c2ccc(OC3CCN(c4ccc(C(F)(F)F)cc4)CC3)c(F)c2)CC1 [Compound 5-26, tert-butyl 4-(3-fluoro-4-(1-(4-(trifluoromethyl)phenyl)piperidin-4-yloxy)benzamido)piperidine-1-carboxylate]
